Results taken from article PMC2151634 (The Journal of General Physiology, 2007).
pEC50: −log10 of the molar value.

Target: T1, P2X2 receptor (Rattus norvegicus, UniProt P49653)
T1 sequence (P49653 1-472): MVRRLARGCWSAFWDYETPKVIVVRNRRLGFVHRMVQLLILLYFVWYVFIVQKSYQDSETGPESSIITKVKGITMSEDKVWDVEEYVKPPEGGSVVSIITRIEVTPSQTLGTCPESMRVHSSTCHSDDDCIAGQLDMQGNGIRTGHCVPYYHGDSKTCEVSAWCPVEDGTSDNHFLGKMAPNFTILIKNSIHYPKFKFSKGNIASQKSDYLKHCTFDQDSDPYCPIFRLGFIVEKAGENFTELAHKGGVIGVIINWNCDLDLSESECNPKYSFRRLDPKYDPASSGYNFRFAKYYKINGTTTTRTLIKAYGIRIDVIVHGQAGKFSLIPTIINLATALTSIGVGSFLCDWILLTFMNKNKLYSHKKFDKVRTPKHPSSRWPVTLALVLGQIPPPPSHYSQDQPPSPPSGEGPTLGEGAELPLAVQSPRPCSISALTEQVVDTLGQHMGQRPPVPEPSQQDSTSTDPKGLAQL
Assay: outside-out patch clamp, peak current, 2-s ATP pulses
Type: cell-based

- pEC50: 5.01
Structure (SMILES): Nc1ncnc2c1ncn2[C@@H]1O[C@H](COP(=O)(O)OP(=O)(O)OP(=O)(O)O)[C@@H](O)[C@H]1O [ATP]
